Results on one compound are retold here after patent publication US12319752B2, “Heparin-binding cationic peptide self-assembling peptide amphiphiles useful against drug-resistant bacteria” (priority 2016, dated 2025).

Residues, ends and D or L forms follow the SMILES beside them. *: point of attachment. Palmitoyl = CCCCCCCCCCCCCCCC(=O)*

This data set has as its system human dermal fibroblasts (HDF). The experiment in a line: Cytotoxicity, MTS cell viability assay. Particulars: HDF, concentrations higher than 20 μM, 24 h. Format: cell-based. On the procedure: To evaluate the cytotoxicity of the peptides, human dermal fibroblasts (HDF) were treated for 24 h, and cell viability was determined via MTS assays (FIG. 13).
Human dermal fibroblast cells (HDF, Detroit 551, ATCC #CCL-110) were cultured in Dulbecco's modified Eagle medium (DMEM; Fisher, Pittsburgh, PA) supplemented with 10% fetal bovine serum (FBS) and 1% penicillin/streptomycin for 24 h. All cells were cultured to 90% confluence in a 37° C., humidified, 5% CO2/95% air environment. Cells at passage numbers of 4-7 were used in these experiments.
The MTS cell viability assay kit (Promega, Madison, WI, USA) was used to determine cytotoxicity of the peptides. First, HDF cells were seeded on a 96-well plate at a cell density of 5,000 cells/well (equal to 15,385 cells/cm^2), and were incubated overnight for cell adhesion. After overnight incubation, the cell medium in each well was replaced by 100 μL of cell culture medium containing various concentrations of peptides (20 μM to 100 μM). The control samples were cells incubated in cell culture medium only. After 24 h, the treatment medium in each well was removed. The cells were washed with phosphate buffered saline (PBS, pH=7.4, Fisher, PA, USA) and 100 μL of fresh cell culture medium was added to each well, followed by the addition of 20 μL of the MTS reagent. After the cells were incubated for 2.5 h, the absorbance was measured at a wavelength of 490 nm by a spectrophotometer (SpectraMax M3, Molecular Devices, Molecular Devices, Sunnyvale, CA, USA). To estimate the cell numbers in each well, a standard curve expressing the linear correlation between different cell densities and optical densities (R^2>0.95) was plotted, and the cell numbers were determined with this standard curve from the OD490 value recorded in each sample. The cell viability of each sample was calculated by: Cell viability=[(cell density per mL of treated sample)/(cell density per mL of control sample)]×100%. Data were expressed by standard error of the mean (±S.E.M.) and N=3, *p<0.05 compared with control samples.
On the technique in general: Tetrazolium assays rely on reduction of a dye to a coloured formazan, in cell work by metabolically active cells.

For `CCCCCCCCCCCCCCCC(=O)N[C@H](C(=O)N[C@H](C(=O)N[C@H](C(=O)N[C@H](C(=O)N[C@@H](CCCCN)C(=O)N[C@@H](CCCCN)C(=O)N[C@@H](CCCCN)C(=O)N[C@@H](CCCCN)C(=O)O)C(C)C)C(C)C)C(C)C)C(C)C` [CVK-PA, C16-V4K4 (SEQ ID NO: 1), reference compound] (Palmitoyl-VVVVKKKK-OH), the cell death entry is on record as “over 40%”.
